The values that follow come from patent publication US8940510B2, “Spray dried microbes and methods of preparation and use” (University of Iowa Research Foundation, priority 2007, dated 2015).

Assay [1] concerns the target T1, glycolate oxidase (Spinacia oleracea, UniProt P05414).
T1 construct: expressed in transfected cells; host or cells: Pichia pastoris, single recombinant (NRRL Y-21001) or double recombinant, spray-dried and/or BAC-permeabilised whole cells
T1 sequence (P05414 1-369): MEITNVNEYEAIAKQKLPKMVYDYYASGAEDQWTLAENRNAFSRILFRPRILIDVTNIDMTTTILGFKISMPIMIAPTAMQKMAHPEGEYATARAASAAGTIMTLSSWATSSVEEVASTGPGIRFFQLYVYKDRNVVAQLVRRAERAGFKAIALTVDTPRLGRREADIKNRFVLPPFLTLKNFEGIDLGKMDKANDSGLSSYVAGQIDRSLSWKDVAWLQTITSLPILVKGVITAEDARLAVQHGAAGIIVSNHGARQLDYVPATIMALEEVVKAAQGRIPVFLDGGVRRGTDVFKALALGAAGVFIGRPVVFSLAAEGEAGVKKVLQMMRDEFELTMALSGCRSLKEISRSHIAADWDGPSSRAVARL
Put plainly: Glycolate oxidase (DCIP) assay on Pichia pastoris whole-cell biocatalyst. The format is biochemical, spinach. As to conditions: racemic substrate, lactic acid is 100%; for Relative GO activity, Permeabilized: permeabilized cells; for Relative GO activity, Spray-dried: spray-dried cells. How it is done: Glycolate Oxidase Assay • 1. Weigh approximately 40 mg spray-dried cells (record exact weight) into a 10 mL centrifuge tube. • 2. Add 8.0 mL of DCIP assay solution (0.12 mM 2,6-dichloroindophenol and 80 mM Tris, pH 8.3). A DCIP solution that is stored at 4° C. may be used for up to 2 weeks. • 3. Mix to suspend cells, then remove 50 μL of suspension (about 0.25 mg dry cells) and place in 3.0 mL quartz cuvette with flea stirrer. Add 2.0 mL of DCIP assay solution. Cap with septum and bubble with nitrogen for 3 minutes. • 4. […]
In initial work (in the absence of spray-drying), after fermentation, cells were recovered by solid/liquid separation, and benzalkonium chloride (BAC) detergent was used to permeabilize cells for the enzyme reaction. […] Thus, another experiment (see below) compared spray-dried cells to several other methods of cell preparation: a) not spray-dried and not BAC treated, b) not spray-dried and treated with BAC, and c) spray-dried and treated with BAC. The spray-dried cells were treated with BAC after spray-drying to determine if spray-drying completely permeabilized the cells.
Detergent Cell Permeabilization • 1. Prepare mixture of 10 weight % cells/volume 50 mM phosphate buffer (pH 7.0) at room temperature. Add 0.1% (w/v) benzalkonium chloride. • 2. Stir or mix slowly for 60 minutes at room temperature, 25° C. • 3. Centrifuge (9950×g for 10 minutes at 5° C.), decant, and re-suspend cells three times (10% w/v) in 50 mM phosphate buffer (pH 7.0) at 5° C., centrifuge, decant. • 4. Permeabilized cells may be used immediately or stored up to one year at −80° C. prior to use.

Assay [2] has as its system glycolate oxidase. To be noted: 100 mM; enzyme extracted from tobacco leaves; cited from earlier work.

`CC(C)C(O)C(=O)O` (racemic) [2-Hydroxy-3-methylbutyric acid]: at glycolate oxidase [1], the “Relative GO activity, Permeabilized” value amounted to 1% and the “Relative GO activity, Spray-dried” value is reported as 2%.
Regarding `CCC(O)C(=O)O` (racemic) [2-Hydroxybutyric acid], at glycolate oxidase [1], the “Relative GO activity, Permeabilized” value was determined as 91% and the “Relative GO activity, Spray-dried” value turned out to be 129%.
Turning to `CCCCCCCCC(O)C(=O)O` (racemic) [2-Hydroxydecanoic acid], on glycolate oxidase [1], the “Relative GO activity, Permeabilized” value is listed as 40% and the “Relative GO activity, Spray-dried” value came to 49%.
With `O=C(O)C(O)Cc1c[nH]c2ccccc12` (racemic) [3-Indolelactic acid], on glycolate oxidase [1], the “Relative GO activity, Permeabilized” value is on record as 18% and the “Relative GO activity, Spray-dried” value came out at 26%.
Turning to `O=C(O)C(O)Cc1ccccc1` (racemic) [3-Phenyllactic acid], at glycolate oxidase [1], the “Relative GO activity, Permeabilized” value amounted to 25% and the “Relative GO activity, Spray-dried” value is on record as 37%.
As for `CC(O)C(=O)O` (racemic) [Lactic acid], at glycolate oxidase [1], the “Relative GO activity, Permeabilized” value worked out at 100% and the “Relative GO activity, Spray-dried” value is 100%.
Turning to `O=C(O)C(O)c1ccccc1` (racemic) [Mandelic acid], on glycolate oxidase [1], the “Relative GO activity, Permeabilized” value was determined as 3% and the “Relative GO activity, Spray-dried” value worked out at 3%.
With `O=C(O)C(O)CCl` (racemic) [β-Chlorolactic acid], on glycolate oxidase [1], the “Relative GO activity, Permeabilized” value is reported as 100% and the “Relative GO activity, Spray-dried” value is 121%.
For `O=C(O)CO` [Glycolic acid], in that order: 90% and 94%.
In the case of `O=C(O)C(=O)O` [Oxalic acid], the “Effect on the catalytic action of glycolate oxidase” value in the assay on glycolate oxidase [2] was “inhibit”.
In the case of `O=C(O)C(O)Cc1ccc(O)cc1` (centres unmarked) [p-Hydroxyphenyllactic acid], on glycolate oxidase [1], the “Relative GO activity, Permeabilized” value was 26% and the “Relative GO activity, Spray-dried” value is listed as 38%.
With Trifluorolactic acid, at glycolate oxidase [1], the “Relative GO activity, Permeabilized” value worked out at 11% and the “Relative GO activity, Spray-dried” value worked out at 2%.
